The target of this test is T1, human alpha-thrombin (Homo sapiens, UniProt P00734).
T1 construct: were reacted with 1.3 picomoles of human alpha-thrombin
The test is described as follows: Thrombin inhibition, residual amidolysis of chromogenic substrate S-2238. The settings on record: 0.13-1.3 picomoles hirudin with 1.3 picomoles human alpha-thrombin, 0.05 M Tris-HCl pH 7.4, 0.1% BSA, 1 hour at 22° C. The class given is biochemical. The method, then: Aliquots of the supernatants were diluted with the Tris-BSA buffer and the reaction initiated by addition of S-2238. Reaction velocities were monitored at 410 nanometers and used to determine thrombin activity. Moles of hirudin analog and its derivatives in each assay were determined by radioiodinated hirudin analog tracer.

With “rHV2 Phe^3 Gln^33 Tyr^35 Lys^47 Asp^63 [H-Tyr]”, the “Thrombin Inhibition (Specific Activity: % of H-Tyr)” value is listed as 100 % of H-Tyr.

(Values after patent US6028170A, “Analogs of hirudin” (Baxter International Inc., priority 1998, dated 2000).)
